Results: patent publication US20180200257A1, “METHODS FOR THE TREATMENT OF INFLAMMATORY DISORDERS” (Galapagos NV, priority 2015, published 2018)

Test system: subjects with moderately to severely active RA who have an inadequate response to methotrexate (MTX)
Assay: Study 1 (add-on to MTX) - DAS28(CRP) scores
Format: in vivo, human
Parameters: key to DAS28(CRP) mean CFB (LOCF): change from baseline in DAS28(CRP) score (joints, CRP, 0-100 VAS)
Protocol: Double-blind, placebo-controlled add on study in subjects with moderately to severely active RA who have an inadequate response to methotrexate (MTX) (oral or parenteral).
595 subjects randomized to one of 6 dose regimens of Compound 1 (dosed as [Compound 1:HCl:3H2O]) (3 dose levels administered either once or twice daily) or placebo on top of each subject's stable dose of MTX.
Compound 1 (dosed as [Compound 1:HCl:3H2O]) is dosed for twelve weeks once daily (q.d.) (50 mg, 100 mg or 200 mg) or twice daily (b.i.d.) (25 mg, 50 mg or 100 mg); or placebo.
At Week 12, the subjects on placebo who have not achieved 20% improvement in swollen joint count (SJC66) and tender joint count (TJC68) are re-randomized automatically to receive Compound 1 (dosed as a [Compound 1:HCl:3H2O]) either at 100 mg q.d. or 50 mg b.i.d. doses in a blinded fashion; subjects on 50 mg q.d. who have not achieved 20% improvement in SJC66 and TJC68 will be assigned to 100 mg q.d. and subjects on 25 mg b.i.d. that have not achieved a 20% improvement in SJC66 and TJC68 will be assigned to 50 mg b.i.d. Subjects who switch treatment at week 12 are handled as if they discontinued at week 12 for the purpose of statistical analysis, whereas subjects in the other groups will maintain their randomized treatment until Week 24.
The (DAS28(CRP)) is a system developed and validated by the European League Against Rheumatism (EULAR) to measure the progress and improvement of rheumatoid arthritis and has been extensively validated (Wells et al., 2008). The DAS28(CRP) scoring includes a 28 tender and swollen joint count, CRP measurement from blood analysis, and a general health assessment on a visual analog scale (Fransen et al., 2003).
DAS28(CRP) values range from 2.0 to 10.0, and more particularly reflect the following status: • Remission: DAS28(CRP) ≤2.6 • Low Disease activity: 2.6 <DAS28(CRP) ≤3.2 • Moderate Disease Activity: 3.2 <DAS28(CRP) ≤5.1 • High Disease Activity: DAS28(CRP) >5.1
In practice, the DAS28(CRP) measurement involves the evaluation 28 different joints including in the measurement (proximal interphalangeal joints (10 joints), metacarpophalangeal joints (10), wrists (2), elbows (2), shoulders (2), and knees (2)). When looking at these joints, both the number of joints with tenderness upon touching and swelling are counted.
Secondly, C-reactive protein level is measured.
Finally, the patient makes a subjective assessment of disease activity during the preceding 7 days on a scale between 0 and 100, where 0 is “no activity” and 100 is “highest activity possible”.
The DAS28(CRP) score is then calculated as follows:
Firstly, the patient is asked to make a vertical mark on a 100 mm Visual Analog Scale (VAS) corresponding to their general health or global disease activity on a touch screen to measure the VAS value, which is used in the formula below.
Secondly, a swollen and tender joint examination is then performed on the patient. The swollen and tender joints are recorded. From this examination are obtained the total amount of swollen joints (SJC) and the total amount of tender joints (TJC), which are used in the formula below.
Thirdly, C-reactive protein (CRP) levels are measured.
Finally, the values obtained above (VAS, TJC28, SJC28, and CRP) are computed into the following Formula to obtain the DAS28(CRP) score.
DAS28(CRP)=0.56*√{square root over (TJC28)}+0.28√{square root over (SJC28)}+[…] ln(CRP+1)+0.014*VAS
The improvement (decreases) in the DAS28(CRP) scores for each patient group at weeks 1, 2, 4, 8 and 12 is shown in Table LXXXVII and Table LXXXVIII below, together with the Hommel-corrected p-value for the pairwise comparisons of each group with placebo.
The number of subjects (N) provided in each groups corresponds to the number of subjects starting the study in each group, and the DAS28 (CRP) data reported below corresponds to the responding subjects continuing for the entire 24 weeks on their initial treatment course.

[1] = 2 × 25 mg b.i.d., 12 weeks results
[2] = 2 × 25 mg b.i.d., 24 weeks results
[3] = 2 × 50 mg b.i.d., 12 weeks results
[4] = 2 × 50 mg b.i.d., 24 weeks results
[5] = 2 × 100 mg b.i.d., 12 weeks results
[6] = 2 × 100 mg b.i.d., 24 weeks results

## O=C(Nc1nc2cccc(-c3ccc(CN4CCS(=O)(=O)CC4)cc3)n2n1)C1CC1 [Compound 1, cyclopropanecarboxylic acid {5-[4-(1,1-dioxo-thiomorpholin-4-ylmethyl)-phenyl]-[1,2,4]triazolo[1,5-a]pyridin-2-yl}-amide]
2 × 25 mg b.i.d., week 2, 12 weeks results
  DAS28(CRP) mean CFB (LOCF): −1.06
2 × 25 mg b.i.d., week 2, 24 weeks results
  DAS28(CRP) mean CFB (LOCF): −1.06
2 × 25 mg b.i.d., week 4, 12 weeks results
  DAS28(CRP) mean CFB (LOCF): −1.45
2 × 25 mg b.i.d., week 4, 24 weeks results
  DAS28(CRP) mean CFB (LOCF): −1.45
2 × 25 mg b.i.d., week 8, 12 weeks results
  DAS28(CRP) mean CFB (LOCF): −1.82
2 × 25 mg b.i.d., week 8, 24 weeks results
  DAS28(CRP) mean CFB (LOCF): −1.82
2 × 25 mg b.i.d., week 12, 12 weeks results
  DAS28(CRP) mean CFB (LOCF): −1.88
2 × 25 mg b.i.d., week 12, 24 weeks results
  DAS28(CRP) mean CFB (LOCF): −1.88
2 × 25 mg b.i.d., week 16, 24 weeks results
  DAS28(CRP) mean CFB (LOCF): −2.02
2 × 25 mg b.i.d., week 20, 24 weeks results
  DAS28(CRP) mean CFB (LOCF): −2.07
2 × 25 mg b.i.d., week 24, 24 weeks results
  DAS28(CRP) mean CFB (LOCF): −2.19
[1]
  % patients reaching low disease activity and/or remission at week 12 (LOCF): 28%
  % patients reaching low disease activity at week 12 (LOCF): 13%
  % patients reaching remission at week 12 (LOCF): 15%
[2]
  % patients reaching low disease activity and/or remission at week 24 (LOCF): 40%
  % patients reaching low disease activity at week 24 (LOCF): 16%
  % patients reaching remission at week 24 (LOCF): 23%
2 × 25 mg b.i.d., Week 1, 12 weeks results
  DAS28(CRP) mean CFB (LOCF): −0.68
2 × 25 mg b.i.d., Week 1, 24 weeks results
  DAS28(CRP) mean CFB (LOCF): −0.68
2 × 50 mg b.i.d., week 2, 12 weeks results
  DAS28(CRP) mean CFB (LOCF): −1.22
2 × 50 mg b.i.d., week 2, 24 weeks results
  DAS28(CRP) mean CFB (LOCF): −1.22
2 × 50 mg b.i.d., week 4, 12 weeks results
  DAS28(CRP) mean CFB (LOCF): −1.65
2 × 50 mg b.i.d., week 4, 24 weeks results
  DAS28(CRP) mean CFB (LOCF): −1.63
2 × 50 mg b.i.d., week 8, 12 weeks results
  DAS28(CRP) mean CFB (LOCF): −1.93
2 × 50 mg b.i.d., week 8, 24 weeks results
  DAS28(CRP) mean CFB (LOCF): −1.93
2 × 50 mg b.i.d., week 12, 12 weeks results
  DAS28(CRP) mean CFB (LOCF): −2.10
2 × 50 mg b.i.d., week 12, 24 weeks results
  DAS28(CRP) mean CFB (LOCF): −2.10
2 × 50 mg b.i.d., week 16, 24 weeks results
  DAS28(CRP) mean CFB (LOCF): −2.37
2 × 50 mg b.i.d., week 20, 24 weeks results
  DAS28(CRP) mean CFB (LOCF): −2.40
2 × 50 mg b.i.d., week 24, 24 weeks results
  DAS28(CRP) mean CFB (LOCF): −2.40
[3]
  % patients reaching low disease activity and/or remission at week 12 (LOCF): 29%
  % patients reaching low disease activity at week 12 (LOCF): 11%
  % patients reaching remission at week 12 (LOCF): 18%
[4]
  % patients reaching low disease activity and/or remission at week 24 (LOCF): 38%
  % patients reaching low disease activity at week 24 (LOCF): 14%
  % patients reaching remission at week 24 (LOCF): 24%
2 × 50 mg b.i.d., Week 1, 12 weeks results
  DAS28(CRP) mean CFB (LOCF): −0.84
2 × 50 mg b.i.d., Week 1, 24 weeks results
  DAS28(CRP) mean CFB (LOCF): −0.84
2 × 100 mg b.i.d., week 2, 12 weeks results
  DAS28(CRP) mean CFB (LOCF): −1.84
2 × 100 mg b.i.d., week 2, 24 weeks results
  DAS28(CRP) mean CFB (LOCF): −1.84
2 × 100 mg b.i.d., week 4, 12 weeks results
  DAS28(CRP) mean CFB (LOCF): −2.28
2 × 100 mg b.i.d., week 4, 24 weeks results
  DAS28(CRP) mean CFB (LOCF): −2.24
2 × 100 mg b.i.d., week 8, 12 weeks results
  DAS28(CRP) mean CFB (LOCF): −2.72
2 × 100 mg b.i.d., week 8, 24 weeks results
  DAS28(CRP) mean CFB (LOCF): −2.72
2 × 100 mg b.i.d., week 12, 12 weeks results
  DAS28(CRP) mean CFB (LOCF): −2.84
2 × 100 mg b.i.d., week 12, 24 weeks results
  DAS28(CRP) mean CFB (LOCF): −2.84
2 × 100 mg b.i.d., week 16, 24 weeks results
  DAS28(CRP) mean CFB (LOCF): −3.06
2 × 100 mg b.i.d., week 20, 24 weeks results
  DAS28(CRP) mean CFB (LOCF): −3.02
2 × 100 mg b.i.d., week 24, 24 weeks results
  DAS28(CRP) mean CFB (LOCF): −3.23
[5]
  % patients reaching low disease activity and/or remission at week 12 (LOCF): 50%
  % patients reaching low disease activity at week 12 (LOCF): 14%
  % patients reaching remission at week 12 (LOCF): 36%
[6]
  % patients reaching low disease activity and/or remission at week 24 (LOCF): 64%
  % patients reaching low disease activity at week 24 (LOCF): 24%
  % patients reaching remission at week 24 (LOCF): 40%
2 × 100 mg b.i.d., Week 1, 12 weeks results
  DAS28(CRP) mean CFB (LOCF): −1.33
2 × 100 mg b.i.d., Week 1, 24 weeks results
  DAS28(CRP) mean CFB (LOCF): −1.33
